The procedure of this series:
The measurement of the kinetic solubility was conducted as described in the experimental part.
0.5 ml of purified/de-ionized water (for instance water for chromatography) is added.
2.535 ml of purified/de-ionized water (for instance water for chromatography) is added to the solid using an adjustable volumetric pipette. The mixture is vigorously agitated at room temperature and briefly sonicated.
Then 0.785 ml of purified/de-ionized water is added.
Then 1.0 ml of purified/de-ionized water is added.

As to `CN1c2c([nH]c(N)nc2=O)NC[C@@H]1CNc1ccc(C(=O)N[C@@H](CCC(=O)[O-])C(=O)[O-])cc1.[Ca+2]` [calcium salt of 5-methyl-(6S)-tetrahydrofolic acid], the “kinetic solubility in water” value (purified/de-ionized water, room temperature, agitated (briefly sonicated), not assay corrected) is reported as “smaller than 10 mg per 1 ml of water”. The “time until a clear solution is obtained” value (weighed solid plus water, agitated at room temperature) is listed as “No clear solution can be obtained”.

These data come from patent US11066408B2, “Crystalline binary sodium salts of 5-methyl-(6S)-tetrahydrofolic acid with organic bases” (MERCK PATENT GMBH, priority 2017, dated 2021).
